In data set [1] the test system is GCP-II. Particulars: GCP-II inhibition, cited from earlier work.
Data set [2] can be described thus: Single time point (1 h) brain concentrations after i.n. administration in rats. The data set is classed as in vivo. Particulars: rat, 30 mg/kg i.n., 1 h post dose; for concentration at 1 h: male, Wistar, other: intranasal (i.n.).
The nature of data set [3]: Pharmacokinetics of 2-PMPA after i.p. administration in rats. It counts as in vivo. To be noted: rat, 30 mg/kg i.p. On the procedure:
For i.p. studies 2-PMPA was administered as a single i.p. dose. All dosing solutions were prepared on the day of the experiment in 50 mM HEPES buffered saline, and pH adjusted to 7.4 before injection. At various time points following drug administration (0.16, .5, 1, 3, 5 h) post dose, animals (n = 3 per time point, except 3 h n = 2 animals) were euthanized with CO2, and blood samples were collected in heparinized microtubes by cardiac puncture and tissues (olfactory bulb, frontal cortex, and cerebellum) were dissected and immediately flash frozen (-80°C). Plasma was prepared by centrifugation immediately after collection of blood samples. All samples were stored in -80°C until bioanalysis. […]
The maximum plasma concentration (Cmax) and time to Cmax (Tmax) were the observed values. The area under the plasma concentration time curve (AUC) value was calculated to the last quantifiable sample (AUClast) by use of the log-linear trapezoidal rule. The brain to plasma partition coefficients were calculated as a ratio of their AUCs (AUC0-t,brain/AUC0-t,plasma). The elimination half-life (t1/2) was determined by dividing 0.693 by λ z.

Data set [4] can be described thus: Plasma and CSF exposure after i.n. administration in non-human primate. It counts as in vivo. Particulars: male cynomolgus monkey, 30 min post dose. The procedure: Total dose delivered was 100 mg.
Standard curves were generated in blank artificial CSF. […] Samples were analysed on agilent QTOF mass spectrometer by LC/MS.

The target in data set [5] is T1, GCP-II (Rattus norvegicus, UniProt P70627).
T1 construct: from tissue; host or cells: rat brain (olfactory bulb, cortex, cerebellum), sonicated homogenate supernatant
Briefly: Ex vivo GCP-II enzymatic (NAAG hydrolyzing) activity in brain tissue after i.n. administration. To be noted: for inhibition at 30 mg/kg: inhaled or nasal, 30 mg/kg i.n., 1 h post dose, relative to untreated control rats. The procedure:
One half of the brain tissues collected following i.n. administration (1h post dose) was used to determine GCP-II NAAG hydrolyzing activity. In brief, tissues were weighed and immersed in 0.5 mL of ice-cold 50 mM Tris Buffer (pH 7.7 at RT). Each tissue was sonicated for 30–60 seconds using an ultrasonic cell disrupter. After a 2 minute spin at 13,000 g, supernatants were analyzed for protein content and NAAG-hydrolyzing activity measurements were performed as previously described.

For data set [6] the following is noted: following systemic administration; ref [45]; cited from earlier work.
Data set [7] can be described thus: Pharmacokinetics of 2-PMPA after i.n. administration in rats. Particulars: rat. It counts as in vivo.
The conditions of data set [8]: non-human primates; halted development; no reference given; cited from earlier work.
The mark [9] stands for this setting: printed in Fig 1, no method or reference given in this paper, read-out: Potency (IC50).
Where [10] appears, read: cerebellum, read-out: Mean concentration in cerebellum.
The mark [11] stands for this setting: frontal cortex, read-out: Mean concentration in cortex.
The mark [12] stands for this setting: olfactory bulb, read-out: Mean concentration in olfactory bulb.

This is an account of results in article PMC4494705 (PLoS ONE, 2015).

Each structure is given as a SMILES string. Entries after “also recorded” stand apart in the source; their conditions may differ. Like-named read-outs stand apart in the source and are kept apart here.

T1 sequence (P70627 whole entry): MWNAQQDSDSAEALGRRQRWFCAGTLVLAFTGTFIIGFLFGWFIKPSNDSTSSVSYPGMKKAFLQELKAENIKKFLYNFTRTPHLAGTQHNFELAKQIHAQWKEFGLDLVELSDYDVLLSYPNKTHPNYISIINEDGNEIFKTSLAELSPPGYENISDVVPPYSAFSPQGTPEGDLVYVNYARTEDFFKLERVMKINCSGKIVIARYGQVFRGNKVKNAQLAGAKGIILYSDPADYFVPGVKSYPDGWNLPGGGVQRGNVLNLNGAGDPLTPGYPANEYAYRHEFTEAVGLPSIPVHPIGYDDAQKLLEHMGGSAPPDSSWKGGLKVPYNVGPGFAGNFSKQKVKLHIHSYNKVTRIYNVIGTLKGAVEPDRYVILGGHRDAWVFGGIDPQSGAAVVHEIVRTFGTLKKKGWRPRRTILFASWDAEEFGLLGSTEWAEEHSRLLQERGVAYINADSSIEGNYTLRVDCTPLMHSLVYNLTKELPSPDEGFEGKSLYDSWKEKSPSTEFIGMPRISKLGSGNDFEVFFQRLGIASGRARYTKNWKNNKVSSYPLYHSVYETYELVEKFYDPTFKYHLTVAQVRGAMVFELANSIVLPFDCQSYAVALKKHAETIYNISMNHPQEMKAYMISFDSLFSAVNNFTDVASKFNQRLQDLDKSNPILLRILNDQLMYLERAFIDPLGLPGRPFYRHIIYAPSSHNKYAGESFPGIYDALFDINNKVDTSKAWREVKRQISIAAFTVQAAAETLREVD

`O=C(O)CC[C@H](NC(=O)N[C@@H](CS)C(=O)O)C(=O)O` [DCMC, N-[N-[(S)-1,3-dicarboxypropyl]carbamoyl]-L-cysteine, reference compound]: the IC50 in the data set with GCP-II [1] (setting [9]) was 3.1 nM. The concentration at 1 h turned out to be 200 ng/g in data set [2] (setting [10]), 2030 ng/g in data set [2] (setting [11]) and 2120 ng/g in data set [2] (setting [12]).

With `O=C(O)CCC(CP(=O)(O)O)C(=O)O` (stereo not drawn) [2-PMPA, 2-(phosphonomethyl)-pentanedioic acid], the Kp in data set [3] (male, Wistar, cerebellum, ip, read-out: Brain tissue to plasma ratio (AUC0-t,brain/AUC0-t,plasma), cerebellum) is […]. The Kp in data set [3] (male, Wistar, frontal cortex, ip, read-out: Brain tissue to plasma ratio (AUC0-t,brain/AUC0-t,plasma), cortex) was […]. Also, in data set [3] (male, Wistar, ip, plasma, read-out: Elimination t1/2 (converted)), the half-life is 59.4 min. Also, the Cmax in data set [3] (male, Wistar, ip, plasma, read-out: Peak plasma concentration (Cmax)) was determined as 49500 ng/mL. In addition, the AUC(0-t) in data set [3] (male, Wistar, plasma, ip, read-out: AUC0-t plasma) was […]. Also, in data set [3] (male, Wistar, plasma, ip, read-out: Apparent clearance), the CL/F was determined as 9.71 mL/min/kg. Besides, in data set [3], the AUC0-t cerebellum was determined as 0.80 µg·h/g, the AUC0-t cortex was found to be […], the AUC0-t olfactory bulb is 1.15 µg·h/g and the “Apparent volume of distribution” value is recorded as 0.82 L/kg. Further, the IC50 in the data set on GCP-II [1] (ref [4],[13], read-out: IC50) was […]. Also, the “CSF concentration versus the IC50” value in data set [4] (i.n.) is reported as […]. In addition, in data set [4] (total dose 100 mg i.n., below the limit of quantitation), the Plasma level is […]. The “Inhibition of brain GCP-II enzymatic activity ex-vivo (in words)” value on GCP-II [5] (i.n. administration) is “complete inhibition”. In addition, the inhibition at 30 mg/kg at GCP-II [5] (read-out: Inhibition of GCP-II activity, cerebellum) is 70%. At GCP-II [5] (read-out: Inhibition of GCP-II activity, cortex), the inhibition at 30 mg/kg amounted to […]. Further, the inhibition at 30 mg/kg at GCP-II [5] (read-out: Inhibition of GCP-II activity, olfactory bulb) was […]. Moreover, the “Brain to plasma ratio” value in data set [6] was […]. In data set [2], the “Mean concentration in cerebellum” value was determined as 2.13 µg/g, the “Mean concentration in cortex” value was determined as 10.3 µg/g and the “Mean concentration in olfactory bulb” value worked out at 31.2 µg/g. In data set [7] (male, Wistar, other: intranasal (i.n.), 30 mg/kg i.n., plasma), this compound gave a Cmax of 24700 ng/mL. In addition, the AUC(0-t) in data set [7] (male, Wistar, plasma, other: intranasal (i.n.), 30 mg/kg i.n., read-out: AUC0-t plasma) amounted to 52300 ng·h/mL. In data set [7] (30 mg/kg i.n.), the AUC0-t cerebellum stood at 5.27 µg·h/g; the AUC0-t cortex is 37.7 µg·h/g; the AUC0-t olfactory bulb was determined as 78.1 µg·h/g; the “Brain tissue to plasma ratio (AUC0-t,brain/AUC0-t,plasma), cerebellum” value amounted to […]. For the same compound, in data set [7] (30 mg/kg i.n.), the “Brain tissue to plasma ratio (AUC0-t,brain/AUC0-t,plasma), cortex” value is given as 0.71 and the “Brain tissue to plasma ratio (AUC0-t,brain/AUC0-t,plasma), olfactory bulb” value was found to be 1.49. For the same compound, the “Share of 2-PMPA reaching the brain accounted from the plasma” value in data set [7] (i.n., pooled plasma and brain data of i.p. and i.n. routes) is recorded as […].

As for `O=C(O)CCC(CCCS)C(=O)O` (stereo not drawn) [2-MPPA, 2-(3-mercaptopropyl)pentane-dioic acid], the IC50 with GCP-II [1] (setting [9]) is 90 nM. Moreover, the “Toxicity observed in primate studies” value in data set [8] is recorded as “membranoproliferative glomerular nephritis; also recorded: immunological toxicities”. For the same compound, the concentration at 1 h in data set [2] (setting [10]) was found to be 210 ng/g; in data set [2] (setting [11]), 260 ng/g; in data set [2] (setting [12]) it was 4460 ng/g.

By IC50 is commonly meant the concentration needed to halve the response being measured. The term inhibition denotes the share of the control response that was lost under treatment.
